The assay has as its system PC3 cells. As to the kind of experiment: NAMPT Cell Proliferation Assay. The format is cell-based. To be noted: Homo sapiens, PC-3, 120 h, 5 days incubation, cell viability by Cell Titer Glo. As to the method: NAMPT Cell Proliferation Assay
PC3 cells were seeded in 96-well black plates (Corning #3904) at 500 cells)Owell in 90 µl of RPMI media containing 10% heat-inactivated FBS and incubated overnight at 37° C. and 5% CO2 to allow cells to attach to wells. The following day, test compounds were serially diluted in neat DMSO to 1000× final concentrations prior to dilution with RPMI media to 10× and 1% DMSO. […] of the 10× compounds were then transferred to wells containing cells to produce a dose response of 10-fold dilutions from […] to 1×10^−[…]. Cells were incubated for 5 days at 37° C. and 5% CO2, then cell viability was measured using Cell Titer Glo reagent (Promega #G7571). Percent inhibition values were calculated and fitted to a sigmoidal dose response curves using Assay Explorer software to determine IC50s.
(Cellular ATP, detected with luciferase, serves as a proxy for viable cell number.)
As a reminder, the IC50 is the midpoint of a concentration-inhibition curve. `O=C(Nc1ccc(OC2CCN(C(=O)CC3CCOCC3)CC2)cc1)C1CN(c2cccnc2)C1` [Example 1, 1-(pyridin-3-yl)-N-(4-{[1-(tetrahydro-2H-pyran-4-ylacetyl)piperidin-4-yl]oxy}phenyl)azetidine-3-carboxamide] came in with an IC50 of 6.56 nM.
In turn, `CC(C)(O)C(=O)N1CCC(c2ccc(NC(=O)C3CN(c4cccnc4C#N)C3)cc2)CC1` [Example 2, 1-(2-cyanopyridin-3-yl)-N-{4-[1-(2-hydroxy-2-methylpropanoyl)piperidin-4-yl]phenyl}azetidine-3-carboxamide] showed an IC50 above 10000 nM.
`O=C(Nc1ccc(OC2CCN(C(=O)CC3CCOCC3)CC2)cc1)C1CN(c2cccnc2C(F)(F)F)C1` [Example 3, N-(4-{[1-(tetrahydro-2H-pyran-4-ylacetyl)piperidin-4-yl]oxy}phenyl)-1-[2-(trifluoromethyl)pyridin-3-yl]azetidine-3-carboxamide] registered an IC50 of 7330 nM.
In turn, `Cc1ncccc1N1CC(C(=O)Nc2ccc(OC3CCN(C(=O)CC4CCOCC4)CC3)cc2)C1` [Example 4, 1-(2-methylpyridin-3-yl)-N-(4-{[1-(tetrahydro-2H-pyran-4-ylacetyl)piperidin-4-yl]oxy}phenyl)azetidine-3-carboxamide] came in with an IC50 of 112 nM. Against the preceding compound, the IC50 is about 65-fold lower.
As to `Cc1ccncc1N1CC(C(=O)Nc2ccc(OC3CCN(C(=O)CC4CCOCC4)CC3)cc2)C1` [Example 5, 1-(4-methylpyridin-3-yl)-N-(4-{[1-(tetrahydro-2H-pyran-4-ylacetyl)piperidin-4-yl]oxy}phenyl)azetidine-3-carboxamide], half-maximal inhibition (IC50) required 6.75 nM. This IC50 lies about 17-fold lower than the previous one.
`O=C(Nc1ccc(OC2CCN(C(=O)CC3CCOCC3)CC2)cc1)C1CN(c2cnccc2F)C1` [Example 6, 1-(4-fluoropyridin-3-yl)-N-(4-{[1-(tetrahydro-2H-pyran-4-ylacetyl)piperidin-4-yl]oxy}phenyl)azetidine-3-carboxamide] had an IC50 of 67.7 nM.
`O=C(Nc1ccc(OC2CCN(C(=O)CC3CCOCC3)CC2)cc1)C1CN(c2cnccc2C(F)(F)F)C1` [Example 7, N-(4-{[1-(tetrahydro-2H-pyran-4-ylacetyl)piperidin-4-yl]oxy}phenyl)-1-[4-(trifluoromethyl)pyridin-3-yl]azetidine-3-carboxamide] had an IC50 of 876 nM.
The value for `CC(C)(C)OC(=O)N1CCC(Oc2ccc(NC(=O)[C@H]3CCN(c4cccnc4)C3)cc2)CC1` [Example 8, tert-butyl 4-[4-({[(3S)-1-(pyridin-3-yl)pyrrolidin-3-yl]carbonyl}amino)phenoxy]piperidine-1-carboxylate] was 70.8 nM.
`CC(C)(C)OC(=O)N1CCC(Oc2ccc(NC(=O)[C@@H]3CCN(c4cccnc4)C3)cc2)CC1` [Example 9, tert-butyl 4-[4-({[(3R)-1-(pyridin-3-yl)pyrrolidin-3-yl]carbonyl}amino)phenoxy]piperidine-1-carboxylate]: the IC50 came to 739 nM.
The value for `O=C(Nc1ccc(C2CCN(C(=O)[C@@H]3CCCO3)CC2)cc1)C1CN(c2cccnc2)C1` [Example 10, 1-(pyridin-3-yl)-N-(4-{1-[(2S)-tetrahydrofuran-2-ylcarbonyl]piperidin-4-yl}phenyl)azetidine-3-carboxamide] was 1.84 nM; that for `O=C(Nc1ccc(OC2CCN(C(=O)CC3CCOCC3)CC2)cc1)[C@H]1CCN(c2cccnc2)C1` [Example 11, (3S)-1-(pyridin-3-yl)-N-(4-{[1-(tetrahydro-2H-pyran-4-ylacetyl)piperidin-4-yl]oxy}phenyl)pyrrolidine-3-carboxamide] was 22.7 nM.
Take `CC(C)C(=O)N1CCC(Oc2ccc(NC(=O)[C@H]3CCN(c4cccnc4)C3)cc2)CC1` [Example 12, (3S)-N-(4-{[1-(2-methylpropanoyl)piperidin-4-yl]oxy}phenyl)-1-(pyridin-3-yl)pyrrolidine-3-carboxamide]: the half-maximal inhibitory concentration (IC50) amounted to 84.4 nM.
In turn, `O=C(Nc1ccc(OC2CCN(C(=O)[C@@H]3CCCO3)CC2)cc1)[C@H]1CCN(c2cccnc2)C1` [Example 13, (3S)-1-(pyridin-3-yl)-N-[4-({1-[(2S)-tetrahydrofuran-2-ylcarbonyl]piperidin-4-yl}oxy)phenyl]pyrrolidine-3-carboxamide] registered an IC50 of 79.1 nM.
Regarding `O=C(Nc1ccc(OC2CCN(C(=O)[C@H]3CCCO3)CC2)cc1)[C@H]1CCN(c2cccnc2)C1` [Example 14, (3S)-1-(pyridin-3-yl)-N-[4-({1-[(2R)-tetrahydrofuran-2-ylcarbonyl]piperidin-4-yl}oxy)phenyl]pyrrolidine-3-carboxamide], half-maximal inhibition (IC50) required 54.8 nM. This IC50 and that of the compound before are within 1.5-fold of each other.
As for `O=C(Nc1ccc(OC2CCN(C(=O)C3CCOC3)CC2)cc1)[C@H]1CCN(c2cccnc2)C1` (stereo partly drawn) [Example 15, (3S)-1-(pyridin-3-yl)-N-(4-{[1-(tetrahydrofuran-3-ylcarbonyl)piperidin-4-yl]oxy}phenyl)pyrrolidine-3-carboxamide], it took 34.7 nM to reach half-maximal inhibition (IC50).
Consider `O=C(Nc1ccc(OC2CCN(C(=O)CC3CC3)CC2)cc1)[C@H]1CCN(c2cccnc2)C1` [Example 16, (3S)-N-(4-{[1-(cyclopropylacetyl)piperidin-4-yl]oxy}phenyl)-1-(pyridin-3-yl)pyrrolidine-3-carboxamide], for which the IC50 was 92.6 nM.
The compound `CC(C)(O)C(=O)N1CCC(Oc2ccc(NC(=O)[C@H]3CCN(c4cccnc4)C3)cc2)CC1` [Example 17, (3S)-N-(4-{[1-(2-hydroxy-2-methylpropanoyl)piperidin-4-yl]oxy}phenyl)-1-(pyridin-3-yl)pyrrolidine-3-carboxamide] gave an IC50 of 93.7 nM.
Next, `O=C(Nc1ccc(OC2CCN(C(=O)CC(F)(F)F)CC2)cc1)[C@H]1CCN(c2cccnc2)C1` [Example 18, (3S)-1-(pyridin-3-yl)-N-(4-{[1-(3,3,3-trifluoropropanoyl)piperidin-4-yl]oxy}phenyl)pyrrolidine-3-carboxamide]: 148 nM; `CC[C@H](C)C(=O)N1CCC(Oc2ccc(NC(=O)[C@H]3CCN(c4cccnc4)C3)cc2)CC1` [Example 19, (3S)-N-[4-({1-[(2S)-2-methylbutanoyl]piperidin-4-yl}oxy)phenyl]-1-(pyridin-3-yl)pyrrolidine-3-carboxamide]: 56.4 nM.
Take `CC(C)(O)C(=O)N1CCC(c2ccc(NC(=O)C3CN(c4cccnc4)C3)cc2)CC1` [Example 20, N-{4-[1-(2-hydroxy-2-methylpropanoyl)piperidin-4-yl]phenyl}-1-(pyridin-3-yl)azetidine-3-carboxamide]: the midpoint of inhibition, the IC50, lay at 0.28 nM.
In the case of `O=C(NC1CN(c2cccnc2)C1)c1ccc(OC2CCN(C(=O)CC3CCOCC3)CC2)cc1` [Example 21, N-[1-(pyridin-3-yl)azetidin-3-yl]-4-{[1-(tetrahydro-2H-pyran-4-ylacetyl)piperidin-4-yl]oxy}benzamide], the IC50 was found to be 150 nM.
As for `CC[C@H](C)C(=O)N1CCC(c2ccc(NC(=O)C3CN(c4cccnc4)C3)cc2)CC1` [Example 22, N-(4-{1-[(2S)-2-methylbutanoyl]piperidin-4-yl}phenyl)-1-(pyridin-3-yl)azetidine-3-carboxamide], the midpoint of inhibition, the IC50, lay at 1.25 nM. This IC50 lies about 120-fold lower than the previous one.
`CC[C@H](C)C(=O)N1CCC(Oc2ccc(C(=O)NC3CN(c4cccnc4)C3)cc2)CC1` [Example 23, 4-({1-[(2S)-2-methylbutanoyl]piperidin-4-yl}oxy)-N-[1-(pyridin-3-yl)azetidin-3-yl]benzamide] yielded an IC50 of 72.5 nM.
The value for `CC(C)(O)C(=O)N1CCC(Oc2ccc(C(=O)NC3CN(c4cccnc4)C3)cc2)CC1` [Example 24, 4-{[1-(2-hydroxy-2-methylpropanoyl)piperidin-4-yl]oxy}-N-[1-(pyridin-3-yl)azetidin-3-yl]benzamide] was 169 nM.
The value for `O=C(Nc1ccc(C2CCN(C(=O)CC3CCOCC3)CC2)cc1)C1CN(c2cccnc2)C1` [Example 25, 1-(pyridin-3-yl)-N-{4-[1-(tetrahydro-2H-pyran-4-ylacetyl)piperidin-4-yl]phenyl}azetidine-3-carboxamide] was 1.41 nM.
As for `O=C(Nc1ccc(C2CCN(C(=O)c3ccccc3)CC2)cc1)C1CN(c2cccnc2)C1` [Example 26, N-[4-(1-benzoylpiperidin-4-yl)phenyl]-1-(pyridin-3-yl)azetidine-3-carboxamide], half-maximal inhibition (IC50) required 0.682 nM.
Next, `CC(C)(C)OC(=O)N1CCC(Oc2ccc(C(=O)N[C@H]3CCN(c4cccnc4)C3)cc2)CC1` [Example 27, tert-butyl 4-(4-{[(3S)-1-(pyridin-3-yl)pyrrolidin-3-yl]carbamoyl}phenoxy)piperidine-1-carboxylate]: above 10000 nM; `CC(C)(C)OC(=O)N1CCC(Oc2ccc(C(=O)N[C@@H]3CCN(c4cccnc4)C3)cc2)CC1` [Example 28, tert-butyl 4-(4-{[(3R)-1-(pyridin-3-yl)pyrrolidin-3-yl]carbamoyl}phenoxy)piperidine-1-carboxylate]: above 10000 nM.
Regarding `Cc1ncccc1N1CC(C(=O)Nc2ccc(C3CCN(C(=O)C(C)C)CC3)cc2)C1` [Example 29, N-{4-[1-(2-methylpropanoyl)piperidin-4-yl]phenyl}-1-(2-methylpyridin-3-yl)azetidine-3-carboxamide], inhibition was half-maximal at 135 nM (IC50).
Consider `CC(C)C(=O)N1CCC(c2ccc(NC(=O)C3CN(c4cccnc4)C3)cc2)CC1` [Example 30, N-{4-[1-(2-methylpropanoyl)piperidin-4-yl]phenyl}-1-(pyridin-3-yl)azetidine-3-carboxamide], for which half-maximal inhibition (IC50) was put at 1.97 nM.
The value for `CC(C)(O)C(=O)N1CCC(Oc2ccc(NC(=O)C3CN(c4cccnc4)C3)cc2)CC1` [Example 31, N-(4-{[1-(2-hydroxy-2-methylpropanoyl)piperidin-4-yl]oxy}phenyl)-1-(pyridin-3-yl)azetidine-3-carboxamide] was 6.9 nM.

Values taken from patent US20130303509A1, “NAMPT INHIBITORS” (AbbVie Inc., priority 2012, published 2013).
